Laboratory results as given in PubChem BioAssay (NCI).
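Here, GI50 denotes the concentration required for 50% inhibition of growth. TGI: concentration producing complete growth inhibition.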

Legend:
Experiment in all cases: DTP human tumour cell line panel, 384-well format
CAKI-1 renal = tested on: CAKI-1 renal
NCI-H322M lung = tested on: NCI-H322M lung
MCF7 breast = tested on: MCF7 breast
NCI/ADR-RES ovarian = tested on: NCI/ADR-RES ovarian
SF-268 CNS = tested on: SF-268 CNS
DU-145 prostate = tested on: DU-145 prostate
MALME-3M melanoma = tested on: MALME-3M melanoma
NCI-H23 lung = tested on: NCI-H23 lung
T-47D breast = tested on: T-47D breast
OVCAR-3 ovarian = tested on: OVCAR-3 ovarian
OVCAR-8 ovarian = tested on: OVCAR-8 ovarian
EKVX NSCLC = tested on: EKVX NSCLC
UACC-62 melanoma = tested on: UACC-62 melanoma
TK-10 renal = tested on: TK-10 renal
HCT-15 colon = tested on: HCT-15 colon
A549 NSCLC = tested on: A549 NSCLC
SNB-75 CNS = tested on: SNB-75 CNS
M14 melanoma = tested on: M14 melanoma
HCC-2998 colon = tested on: HCC-2998 colon
NCI-H522 lung = tested on: NCI-H522 lung
COLO 205 colon = tested on: COLO 205 colon
HT29 colon = tested on: HT29 colon
MDA-MB-468 breast = tested on: MDA-MB-468 breast
U251 glioblastoma = tested on: U251 glioblastoma
MDA-MB-231 breast = tested on: MDA-MB-231 breast
OVCAR-4 ovarian = tested on: OVCAR-4 ovarian
NCI-H226 lung = tested on: NCI-H226 lung
IGROV1 ovarian = tested on: IGROV1 ovarian
SNB-19 CNS = tested on: SNB-19 CNS
SK-MEL-5 melanoma = tested on: SK-MEL-5 melanoma
RPMI-8226 leukemia = tested on: RPMI-8226 leukemia
SF-539 CNS = tested on: SF-539 CNS
HOP-92 NSCLC = tested on: HOP-92 NSCLC
SK-MEL-28 melanoma = tested on: SK-MEL-28 melanoma
HS 578T breast = tested on: HS 578T breast
ACHN renal = tested on: ACHN renal
SF-295 CNS = tested on: SF-295 CNS
UACC-257 melanoma = tested on: UACC-257 melanoma
SK-OV-3 ovarian = tested on: SK-OV-3 ovarian
OVCAR-5 ovarian = tested on: OVCAR-5 ovarian
SR leukemia = tested on: SR leukemia
HL-60(TB) leukemia = tested on: HL-60(TB) leukemia
KM12 colon = tested on: KM12 colon
MOLT-4 leukemia = tested on: MOLT-4 leukemia
PC-3 prostate = tested on: PC-3 prostate
LOX IMVI melanoma = tested on: LOX IMVI melanoma
NCI-H460 NSCLC = tested on: NCI-H460 NSCLC
HOP-62 NSCLC = tested on: HOP-62 NSCLC
HCT-116 colon = tested on: HCT-116 colon
BT-549 breast = tested on: BT-549 breast
SN12C renal = tested on: SN12C renal
A498 renal = tested on: A498 renal
MDA-MB-435 melanoma = tested on: MDA-MB-435 melanoma
RXF 393 renal = tested on: RXF 393 renal

CCn1c(C(=O)N(C2CC2)C2CC2)cc2c3c(ncn3C)c(Nc3cc(C)n(C)n3)nc21
GI50 (CAKI-1 renal): > 100 µM
TGI (CAKI-1 renal): > 100 µM
GI50 (NCI-H322M lung): > 100 µM
TGI (NCI-H322M lung): > 100 µM
GI50 (MCF7 breast): > 100 µM
TGI (MCF7 breast): > 100 µM
GI50 (NCI/ADR-RES ovarian): > 100 µM
TGI (NCI/ADR-RES ovarian): > 100 µM
GI50 (SF-268 CNS): > 100 µM
TGI (SF-268 CNS): > 100 µM
GI50 (DU-145 prostate): > 100 µM
TGI (DU-145 prostate): > 100 µM
GI50 (MALME-3M melanoma): > 100 µM
TGI (MALME-3M melanoma): > 100 µM
GI50 (NCI-H23 lung): > 100 µM
TGI (NCI-H23 lung): > 100 µM
GI50 (T-47D breast): > 100 µM
TGI (T-47D breast): > 100 µM
GI50 (OVCAR-3 ovarian): > 100 µM
TGI (OVCAR-3 ovarian): > 100 µM
GI50 (OVCAR-8 ovarian): > 100 µM
TGI (OVCAR-8 ovarian): > 100 µM
GI50 (EKVX NSCLC): > 100 µM
TGI (EKVX NSCLC): > 100 µM
GI50 (UACC-62 melanoma): > 100 µM
TGI (UACC-62 melanoma): > 100 µM
GI50 (TK-10 renal): 81.8 µM
TGI (TK-10 renal): > 100 µM
GI50 (HCT-15 colon): > 100 µM
TGI (HCT-15 colon): > 100 µM
GI50 (A549 NSCLC): > 100 µM
TGI (A549 NSCLC): > 100 µM
GI50 (SNB-75 CNS): 26.2 µM
TGI (SNB-75 CNS): > 100 µM
GI50 (M14 melanoma): > 100 µM
TGI (M14 melanoma): > 100 µM
GI50 (HCC-2998 colon): > 100 µM
TGI (HCC-2998 colon): > 100 µM
GI50 (NCI-H522 lung): > 100 µM
TGI (NCI-H522 lung): > 100 µM
GI50 (COLO 205 colon): > 100 µM
TGI (COLO 205 colon): > 100 µM
GI50 (HT29 colon): > 100 µM
TGI (HT29 colon): > 100 µM
GI50 (MDA-MB-468 breast): > 100 µM
TGI (MDA-MB-468 breast): > 100 µM
GI50 (U251 glioblastoma): > 100 µM
TGI (U251 glioblastoma): > 100 µM
GI50 (MDA-MB-231 breast): > 100 µM
TGI (MDA-MB-231 breast): > 100 µM
GI50 (OVCAR-4 ovarian): 33.4 µM
TGI (OVCAR-4 ovarian): > 100 µM
GI50 (NCI-H226 lung): > 100 µM
TGI (NCI-H226 lung): > 100 µM
GI50 (IGROV1 ovarian): 44 µM
TGI (IGROV1 ovarian): > 100 µM
GI50 (SNB-19 CNS): > 100 µM
TGI (SNB-19 CNS): > 100 µM
GI50 (SK-MEL-5 melanoma): > 100 µM
TGI (SK-MEL-5 melanoma): > 100 µM
GI50 (RPMI-8226 leukemia): > 100 µM
TGI (RPMI-8226 leukemia): > 100 µM
GI50 (SF-539 CNS): > 100 µM
TGI (SF-539 CNS): > 100 µM
GI50 (HOP-92 NSCLC): > 100 µM
TGI (HOP-92 NSCLC): > 100 µM
GI50 (SK-MEL-28 melanoma): > 100 µM
TGI (SK-MEL-28 melanoma): > 100 µM
GI50 (HS 578T breast): > 100 µM
TGI (HS 578T breast): > 100 µM
GI50 (ACHN renal): > 100 µM
TGI (ACHN renal): > 100 µM
GI50 (SF-295 CNS): > 100 µM
TGI (SF-295 CNS): > 100 µM
GI50 (UACC-257 melanoma): > 100 µM
TGI (UACC-257 melanoma): > 100 µM
GI50 (SK-OV-3 ovarian): 34.8 µM
TGI (SK-OV-3 ovarian): > 100 µM
GI50 (OVCAR-5 ovarian): > 100 µM
TGI (OVCAR-5 ovarian): > 100 µM
GI50 (SR leukemia): 8.59 µM
TGI (SR leukemia): 50.5 µM
GI50 (HL-60(TB) leukemia): > 100 µM
TGI (HL-60(TB) leukemia): > 100 µM
GI50 (KM12 colon): 0.675 µM
TGI (KM12 colon): > 100 µM
GI50 (MOLT-4 leukemia): 87.2 µM
TGI (MOLT-4 leukemia): > 100 µM
GI50 (PC-3 prostate): > 100 µM
TGI (PC-3 prostate): > 100 µM
GI50 (LOX IMVI melanoma): 49.7 µM
TGI (LOX IMVI melanoma): > 100 µM
GI50 (NCI-H460 NSCLC): > 100 µM
TGI (NCI-H460 NSCLC): > 100 µM
GI50 (HOP-62 NSCLC): > 100 µM
TGI (HOP-62 NSCLC): > 100 µM
GI50 (HCT-116 colon): > 100 µM
TGI (HCT-116 colon): > 100 µM
GI50 (BT-549 breast): > 100 µM
TGI (BT-549 breast): > 100 µM
GI50 (SN12C renal): 3.43 µM
TGI (SN12C renal): > 100 µM
GI50 (A498 renal): > 100 µM
TGI (A498 renal): > 100 µM
GI50 (MDA-MB-435 melanoma): > 100 µM
TGI (MDA-MB-435 melanoma): > 100 µM
GI50 (RXF 393 renal): > 100 µM
TGI (RXF 393 renal): > 100 µM
